Patent US4975437A, “Isomers of 1-azabicyclo(2.2.2)oct-3-yl 1,4-dihydro-2,6-dimethyl-4-(3-nitrophenyl)-5-nitropyridine-3-carboxylate” (Marion Laboratories, Inc., priority 1989, dated 1990)
Where a name gives a salt, the structure may show the parent alone. Read-outs that look alike come from different tables or passages of the source.

How the values were obtained:
[1] = system: radioactive calcium uptake; conditions: cited from earlier work
[2] = system: rabbit aortic rings; conditions: cited from earlier work
[3] = system: voltage sensitive calcium channels; test: Potentiation of Calcium Influx across the Membrane (Quin 2 fluorescence); format: cell-based, murine; conditions: NG108-15 (NGI08-15 [sic]) cells, KCl 50 mM depolarization, 37° C, percent enhancement over potassium chloride stimulation
Protocol: This test system was developed to evaluate the relative ability of compounds to potentiate calcium influx into cells via voltage sensitive calcium channels. The technique employs a high calcium affinity fluorescent dye to monitor changes in intracellular free calcium concentrations. The cells are incubated with a protected non-fluorescent form of the calcium sensitive dye. This compound permeates the cell wall and enters the cell. There it is transformed by enzymes into the fluorescent dye Quin 2 which cannot leave the cell Quin 2 has a high affinity for calcium ions and when calcium is bound to the dye, the complex fluoresces, the intensity of the fluorescence being proportional to the concentration of calcium ions. Voltage sensitive calcium channels are activated by the addition of potassium chloride to the media and calcium ion influx occurs. The increase in fluorescence is measured, giving a relative measure of calcium influx, the control value. In a separate cuvette, both potassium chloride and the test compound are administered to the cells and the fluorescence measured. A calcium agonist should increase influx of calcium into the cells and therefore an increase in the fluorescence. The percent stimulation above control is obtained from the increase in fluorescence.
Differentiated murine neuronal (neuroblastoma x glioma) hybrid cells (NGI08-15) which contain an abundance of voltage dependant calcium channels were used as a source of tissue for testing these compounds.
Briefly, NGI08-15 cells were cultured in 10% CO2 at 37° C. in Dulbecco's modified Eagle's medium (DMEM) supplemented with glutamine (1.0 mM). fetal bovine serum (FBS; 10%). and hypoxanthine (100 μM), aminopterin (1.0 μM). and thymidine (20 μM). Differentiation was induced by treatment with dibutyl cyclic AMP (4 days, 1.0 mM) [L. Noronha-Blob, C. […] Dispersed cells (5×10^6 cells/mL) were incubated with quin 2 acetoxymethyl ester (quin 2-AM, the calcium specific dye) [100 μM. in dimethyl sulfoxide (DMSO)] for 60 minutes at 37° C. The control suspensions received only DMSO. Cells were then diluted in ice-cold media, centrifuged and washed twice (1,500×g, 3 minutes) in ice-cold HEPES buffer (composition: 130 mM NaCl, 5.0 mM KCl, 6.0 mM glucose, 1.0 mM MgCl2, 1.0 mM CaCl2, and 20 mM HEPES, pH 7 4).
The change in fluorescence was calculated from the difference between final and initial values. The results were expressed as a percent enhancement over potassium chloride stimulation (control).

[4] = system: smooth muscle (longitudinal muscle of ileum); test: Enhancement of Calcium Ion Evoked Smooth Muscle Contractility (isolated ileum longitudinal muscle); conditions: guinea pig ileum; for Concentration at Maximum Enhancement: concentration of compound that produced the maximum enhancement; for Maximum Enhancement (% maximum contraction): 6 min; for minimal effective concentration: lowest concentration that produced enhancement of calcium evoked contraction, 37° C, read-out: Threshold for Enhancement
Description: This test is a measure of the ability of test compounds to enhance muscle contraction caused by calcium ions. A sample of muscle was placed under tension in a device to measure its length and contracted by addition of potassium chloride (to activate the calcium channels) followed by addition of a calcium ion solution. The addition of a calcium agonist should cause the influx of additional calcium ions and thereby cause further contraction of the muscle. The lowest concentration of test compound necessary to evoke this additional contraction was measured, as were the maximum contraction obtained and the concentration at which it was reached
The ileum of male albino guinea pigs were cut into 3-4 cm segments. The longitudinal muscle, with myenteric plexus attached, was separated from the circular muscle. […] Each preparation was suspended under resting tension of 0.3 g. The tissues were switched to calcium free Tryodes solution for 24 minutes. with complete replacement of the solution every four minutes. Potassium chloride was then added to produce a bath concentration of […], and calcium solutions were cumulatively added to increase the bath calcium ion concentration to 0.2-8.0 mM. The tissues were re-equilibrated in normal Tyrodes and then calcium free Tyrodes. Enhancement of calcium evoked contractions in the presence of drug were determined by repeating the cumulative addition procedure after the tissues were exposed to the drug for six minutes. Responses were expressed relative to the maximum contraction elicited by calcium ion in the absence of the drug.

[5] = in words; cited from earlier work
[6] = system: extracellular calcium ions; conditions: in words, dose-dependent; cited from earlier work
[7] = system: isolated rabbit aortic strips; conditions: cited from earlier work
[8] = system: isolated guinea pig atrium; conditions: cited from earlier work
[9] = increase above control as percent of maximum control calcium evoked contraction, 6 min drug exposure

SMILES | % Stimulation Above Control [3] | Concentration at Maximum Enhancement [4] | Maximum Enhancement (% maximum contraction) [4, 9] | minimal effective concentration ([4]; 6 min drug exposure) | other results
CC1=C(C(=O)OC(C)C)C(c2cccc3nonc23)C([N+](=O)[O-])=C(C)N1 (racemic) [Example 202-792, 2-propyl 4-(4-benzofurazanyl)-1,4-dihydro-2,6-dimethyl-5-nitropyridine-3-carboxylate] | – | – | – | – | radioactive calcium uptake ([1]; high levels of depolarization): inhibited contraction and radioactive calcium uptake at high levels of depolarization; contraction of aortic rings ([2]; high levels of depolarization): inhibited contraction; contraction of aortic rings ([2]; low levels of depolarization): enhanced contractions of rabbit aortic rings at low levels of depolarization
CC1=C(C(=O)OC2CN3CCC2CC3)C(c2cccc([N+](=O)[O-])c2)C([N+](=O)[O-])=C(C)N1 (single isomer, unassigned) [(+a, +b), (+a, +b)-1-Azabicyclo[2.2.2]oct-3-yl 1,4-Dihydro-2,6-dimethyl-4-(3-nitrophenyl)-5-nitropyridine-3-carboxylate fumarate] | 20% | 100 nM | 11% | 10 nM | –
CC1=C(C(=O)OC2CN3CCC2CC3)C(c2cccc([N+](=O)[O-])c2)C([N+](=O)[O-])=C(C)N1 (single isomer, unassigned) [(+a, -b), (+a, -b)-1-Azabicyclo[2.2.2]oct-3-yl 1,4-Dihydro-2,6-dimethyl-4-(3-nitrophenyl)-5-nitropyridine-3-carboxylate fumarate] | 31% | 10 nM | 15% | 10 nM | –
CC1=C(C(=O)OC2CN3CCC2CC3)C(c2cccc([N+](=O)[O-])c2)C([N+](=O)[O-])=C(C)N1 (single isomer, unassigned) [(-a, +b), (-a, +b)-1-Azabicyclo[2.2.2]oct-yl 1.4-Dihydro-2,6-dimethyl-4-(3-nitrophenyl)-5-nitropyridine-3-carboxylate fumarate] | 25% | 1000 nM | 13% | 100 nM | –
CC1=C(C(=O)OC2CN3CCC2CC3)C(c2cccc([N+](=O)[O-])c2)C([N+](=O)[O-])=C(C)N1 (single isomer, unassigned) [(-a, -b), (-a, -b)-1-Azabicyclo[2.2.2]oct-3-yl 1,4-Dihydro-2,6-dimethyl-4-(3-nitrophenyl)-5-nitropyridine-3-carboxylate fumarate] | 10% | 10 nM | 18% | 10 nM | –
COC(=O)C1=C(C)NC(C)=C([N+](=O)[O-])C1c1ccccc1C(F)(F)F (centres unmarked) [BAY K 8644, Methyl 1,4-dihydro-2,6-dimethyl-5-nitro-4-(2-trifluoromethylphenyl)-3-pyridine carboxylate] | 38% | 100 nM | – | – | inotropic effect [5]: potent positive inotropic effects; Emax ([4]; Cavia porcellus, 0.1 h, increase above control as percent of maximum control calcium evoked contraction, 6 min drug exposure): 38%; minimal effective concentration ([4]; Cavia porcellus, 0.1 h, 6 min drug exposure): 10 nM
CCOC(=O)C1=C(C)NC2=C(C(=O)OC2)C1c1ccccc1OC(F)F (centres unmarked) [CGP 28392, ethyl 4-[2-(difluoromethoxy)phenyl]-1,4,5,7-tetrahydro-2-methyl-5-oxofuro[3,4-b]pyridine-3-carboxylate] | – | – | – | – | concentration of extracellular calcium ions [6]: increase in a dose-dependent manner the concentration of extracellular calcium ions
CC1=C(C(=O)OC(C)C)[C@@H](c2cccc3nonc23)C([N+](=O)[O-])=C(C)N1 [R enantiomer] | – | – | – | – | radioactive calcium uptake ([1]; single enantiomer, in words): inhibited contraction and radioactive calcium uptake; contraction ([2]; single enantiomer, in words): inhibited contraction; stimulant activity ([2]; single enantiomer, in words): no stimulant activity
CC1=C(C(=O)OC(C)C)[C@H](c2cccc3nonc23)C([N+](=O)[O-])=C(C)N1 [S enantiomer] | – | – | – | – | radioactive calcium uptake ([1]; single enantiomer, in words): enhanced radioactive calcium uptake dependently at all levels of depolarization; concentration-response curve for depolarization-induced contraction ([2]; single enantiomer, in words): shifted the concentration-response curve for depolarization-induced contraction in an almost parallel fashion to the left; contraction ([2]; single enantiomer, in words): enhanced contraction
CC1=C(C(=O)Nc2ccccc2)C(c2ccccc2Cl)C(C(=O)OCCc2ccccn2)=C(C)N1 (centres unmarked) [YC-170] | – | – | – | – | contraction of aortic strips ([7]; isolated rabbit aortic strips): induced contraction; relaxant effect on aorta ([7]; precontracted by a high concentration of potassium): relaxant effect; inotropic effect in atrium ([8]; isolated guinea pig atrium): positive inotropic effect; contractile tension in atrium ([8]; partially depolarized with a low concentration of potassium): decrease in contractile tension
